# Results as given in patent US9474749B2 (priority 2004, dated 2016).
# Legend:
# SH-SY5Y cells = assay: M6G-induced NO release from SH-SY5Y cells; format: cell-based, human; conditions: 1 hour pre-treatment, 1 μM M6G
# Protocol: The production of NO in SH-SY5Y cells was detected using the Apollo 4000 Free Radical Analyzer (World Precision Instruments). SH-SY5Y cells were trypsinized and cultured in a 6-well plate for 48 hours. An L-shaped amperometric NO-specific probe was connected to the Apollo Analyzer and calibrated using a SNAP+CuCl2 solution, which releases calculable amounts of NO. […] At the end of the treatment time-point, the media was removed and replaced with PBS warmed in a 37° C. bath, which is non-reactive with the probe. The probe was inserted about 1.5 mm above the cells and allowed to equilibrate for 5 minutes. […] The probe was monitored in real-time for the production of NO “spikes.” NO data was recorded using Free Radical Analyzer (World Precision Instruments). Cells were then discarded.
# [1] = system: Mytilus edulis pedal ganglia; assay: Endogenous morphine levels in excised pedal ganglia incubated in vitro (HPLC, RIA); format: cell-based
# NCI-H295R cells = assay: Morphine production by NCI-H295R cells (RIA); format: cell-based, human; conditions: one half million cells, 100 ng of reticuline, 24 hours; control about 9.6±3.5
# From the text: Human cells (NCI-H295R) were adapted from the NCI-H295 pluripotent adrenocortical carcinoma cell line (ATCC CRL-10296), which is from a carcinoma of the adrenal cortex. The original cells were adapted to a culture medium that decreased the population doubling time from 5 days to 2 days. While the original cells grew in suspension, the adapted cells were selected to grow in a monolayer. These cells retained the ability to produce adrenal androgens and were responsive to angiotensin II and potassium ions. To propagate these cells, the culture medium was a 1:1 mixture of Dulbecco's modified Eagle's medium and Ham's F12 medium containing 15 mM HEPES, 0.00625 mg/mL insulin, 0.00625 mg/mL transferrin, 6.25 ng/mL selenium, 1.25 mg/mL bovine serum albumin, and 0.00535 mg/mL linoleic acid, 97.5%; Nu-Serum I, 2.5%. See, e.g., Rainey et al., Mol. Cell. Endocrinol., 100:45-50 (1994); Gazdar et al., Cancer Res., 50:5488-5496 (1990); and Bird et al., Endocrinology, 133:1555-1561 (1993)).
# The cells were subcultured in 6 well cell culture cluster (Corning Inc.) 24 hours before the experiment. The amount of cells was determined by Microscope (Nickon inc). Various amounts of reticuline were added to the cells, and the cells were cultured with an NAPCO incubator. The incubation was terminated after 24 hours by adding 10 NHCl.
# mu3 opiate receptor [2] = biological target: mu3 opiate receptor (Mytilus edulis, UniProt A0A8S3SM58); assay: Displacement of 3H-dihydromorphine, pedal ganglia membrane suspension; format: binding
# Protocol: An additional 100 excised pedal ganglia and the human monocytes were separately washed and homogenized in 50 volumes of 0.32 M sucrose, pH 7.4, at 4° C. using a Brinkmann polytron (30 seconds, setting no. 5). The crude homogenate was centrifuged at 900×g for 10 minutes at 4° C., and the supernatant was reserved on ice. The whitish crude pellet was resuspended by homogenization (15 seconds, setting no. 5) in 30 volumes of 0.32 M sucrose/Tris-HCl buffer, pH 7.4, and centrifuged at 900×g for 10 minutes. The extraction procedure was repeated one more time, and the combined supernatants were centrifuged at 900×g for 10 minutes. The resulting supernatants (S1′) were used immediately. […] The P2 pellet was then re-suspended with a Dounce hand-held homogenizer (10 strokes) in 100 volumes of buffer. Binding analysis was then performed on the cell membrane suspensions.
# Aliquots of membrane suspension (0.2 mL, 0.12 mg of membrane protein) were incubated in triplicate at 22° C. for 40 minutes with the appropriate radiolabeled ligand in the presence of dextrorphan (10 mM) or levorphanol (10 mM) in 10 mM Tris-HCl buffer, pH 7.4, containing 0.1% BSA and 150 mM KCl. […] The filters were rapidly washed with 2.5 mL aliquots of the incubation buffer (4° C.), containing 2% polyethylene glycol 6000 (Baker). […] Protein concentration was determined in membrane suspensions (prepared in the absence of BSA).
# [3] = system: Mytilus edulis pedal ganglia; assay: Ganglionic morphine levels after injection into the foot of intact animals; conditions: one hour after injection into the foot
# Protocol: For in vivo precursor injection experiments, the animal's foot was injected with either reticuline or L-DOPA (0.1 and 1 μg/injection, respectively). Chemicals were injected by BD 1 cc syringes with 26 G needles. Each needle was inserted into that base of the foot just above the pedal ganglia.
# For in vivo treatments, the animal's foot (20 animals per treatment) was injected with tyrosine (10^−5 M), tyramine (10^−5 M), or saline. Other animals were exposed to the enzyme inhibitors AMPT or quinidine alone or immediately following the respective foot injection. […] All chemicals were purchased from Sigma (St. Louis, Mo.).
# mu3 opiate receptor [4] = biological target: T1, mu3 opiate receptor (Homo sapiens, UniProt P35372); assay: biochemical; format: binding; conditions: read-out: Monocytes IC50, displacement of 3H-dihydromorphine; mean +/− S.E.M., three experiments
# T1 construct: An additional 100 excised pedal ganglia and the human monocytes were separately washed and homogenized; host or cells: human monocytes
# Protocol: For the nitric oxide assay, ten pedal ganglia (per determination) dissected from M. edulis were bathed in 1 mL sterile phosphate buffered saline (PBS). […] NO release was monitored with an NO-selective microprobe manufactured by World Precision Instruments (Sarasota, Fla.). The sensor was positioned approximately 100 μm above the respective tissue surface. […] The NO detection system was calibrated daily. The probe was allowed to equilibrate for 10 minutes in the incubation medium free of tissue before being transferred to vials containing the ganglia for another 5 minutes. Manipulation and handling of the ganglia was only performed with glass instruments. Data was acquired using the Apollo-4000 free radical analyzer (World Precision Instruments, Sarasota, Fla.). The experimental values were then transferred to Sigma-Plot and -Stat (Jandel, Calif.) for graphic representation and evaluation.
# An additional 100 excised pedal ganglia and the human monocytes were separately washed and homogenized in 50 volumes of 0.32 M sucrose, pH 7.4, at 4° C. using a Brinkmann polytron (30 seconds, setting no. 5). The crude homogenate was centrifuged at 900×g for 10 minutes at 4° C., and the supernatant was reserved on ice. The whitish crude pellet was resuspended by homogenization (15 seconds, setting no. 5) in 30 volumes of 0.32 M sucrose/Tris-HCl buffer, pH 7.4, and centrifuged at 900×g for 10 minutes. The extraction procedure was repeated one more time, and the combined supernatants were centrifuged at 900×g for 10 minutes. The resulting supernatants (S1′) were used immediately. […] The P2 pellet was then re-suspended with a Dounce hand-held homogenizer (10 strokes) in 100 volumes of buffer. […]
# Aliquots of membrane suspension (0.2 mL, 0.12 mg of membrane protein) were incubated in triplicate at 22° C. for 40 minutes with the appropriate radiolabeled ligand in the presence of dextrorphan (10 mM) or levorphanol (10 mM) in 10 mM Tris-HCl buffer, pH 7.4, containing 0.1% BSA and 150 mM KCl. […] Protein concentration was determined in membrane suspensions (prepared in the absence of BSA).
# [5] = system: human white blood cells / PMNs; assay: Morphine production by human WBC and PMNs (HPLC, RIA); format: cell-based
# pedal ganglia = assay: NO release from excised pedal ganglia (NO-selective microprobe); format: cell-based, Mytilus edulis
# Protocol: For the nitric oxide assay, ten pedal ganglia (per determination) dissected from M. edulis were bathed in 1 mL sterile phosphate buffered saline (PBS). […] For the opiate receptor antagonist experiments, ganglia were pretreated with naloxone for 10 minutes prior to reticuline addition. NO release was monitored with an NO-selective microprobe manufactured by World Precision Instruments (Sarasota, Fla.). The sensor was positioned approximately 100 μm above the respective tissue surface. […] The NO detection system was calibrated daily. The probe was allowed to equilibrate for 10 minutes in the incubation medium free of tissue before being transferred to vials containing the ganglia for another 5 minutes. Manipulation and handling of the ganglia was only performed with glass instruments. Data was acquired using the Apollo-4000 free radical analyzer (World Precision Instruments, Sarasota, Fla.). The experimental values were then transferred to Sigma-Plot and -Stat (Jandel, Calif.) for graphic representation and evaluation.
# human saphenous veins = assay: NO release from human saphenous veins; conditions: 10^−6 M CTOP 10 minutes before morphine
# mu3 opiate receptor [6] = conditions: 10^−6 M CTOP 10 minutes prior
# Protocol: In addition, the cells were either incubated with or without 10^−6 M CTOP 10 minutes prior to adding M6G.
# Sequence of mu3 opiate receptor (Mytilus edulis, UniProt A0A8S3SM58) (A0A8S3SM58 1-388): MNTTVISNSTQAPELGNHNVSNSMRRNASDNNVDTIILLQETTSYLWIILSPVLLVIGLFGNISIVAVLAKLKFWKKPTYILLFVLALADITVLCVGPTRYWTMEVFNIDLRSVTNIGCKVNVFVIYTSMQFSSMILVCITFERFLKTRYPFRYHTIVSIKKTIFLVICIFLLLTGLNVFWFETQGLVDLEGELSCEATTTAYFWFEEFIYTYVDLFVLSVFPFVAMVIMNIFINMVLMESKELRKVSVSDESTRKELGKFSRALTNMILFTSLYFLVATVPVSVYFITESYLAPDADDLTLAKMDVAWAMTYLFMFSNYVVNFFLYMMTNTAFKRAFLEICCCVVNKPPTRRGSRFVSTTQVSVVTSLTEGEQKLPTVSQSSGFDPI
# T1 sequence (P35372 1-314 isoform P35372-14): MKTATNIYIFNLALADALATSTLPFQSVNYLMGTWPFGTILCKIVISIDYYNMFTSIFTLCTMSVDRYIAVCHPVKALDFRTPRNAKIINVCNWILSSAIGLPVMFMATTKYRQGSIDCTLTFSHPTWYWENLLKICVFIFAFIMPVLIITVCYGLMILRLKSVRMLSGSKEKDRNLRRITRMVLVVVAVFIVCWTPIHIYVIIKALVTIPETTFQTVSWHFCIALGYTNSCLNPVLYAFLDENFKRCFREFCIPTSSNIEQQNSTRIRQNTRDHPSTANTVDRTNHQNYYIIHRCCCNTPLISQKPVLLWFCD
molecule,measurement,setting,value
Aβ1-42: β-amyloid peptide (Aβ) 1-42,M6G-induced NO release after Aβ1-42 pre-treatment,SH-SY5Y cells,dose-dependent decrease in NO release
"COc1ccc(C[C@H]2c3cc(O)c(OC)cc3CCN2C)cc1O [Reticuline, reticuline]",endogenous morphine level in ganglia (HPLC),"[1]; 50 ng of reticuline, 1 hour, control 1.43±0.41",6.7±0.7 ng/mg tissue wet weight
same,morphine production in mantle tissues,"[1]; 50 ng of reticuline, mantle tissues",did not produce detectable morphine
same,morphine per mg ganglion,[1]; 100 ng of reticuline,about 5.0±0.47 ng morphine per mg ganglion
same,ganglionic morphine level (RIA),"[1]; 100 ng of reticuline, one hour, control 1.33±0.61",about 14.53±4.6 ng/mg
same,"ganglionic morphine level (HPLC, FIG. 1 legend)","[1]; 0.5 μg of reticuline, 1 hour",5 ng/mg morphine tissue wet weight
same,ganglionic morphine levels after exposure,[1]; 10^−6 M (FIG. 20),significantly enhanced morphine levels
same,ganglionic morphine levels versus control,"[1]; 50 and 100 ng, 60 minutes, in vitro",significantly higher
same,morphine produced by cells,NCI-H295R cells,about 28±5.4 ng
same,affinity for the mu3 opiate receptor,mu3 opiate receptor [2],does not exhibit an affinity
same,IC50,"mu3 opiate receptor [2]; read-out: Pedal Ganglia IC50, displacement of 3H-dihydromorphine, mean +/− S.E.M., three experiments",> 1000 nM
same,pedal ganglionic morphine levels after injection,[3],significantly increased pedal ganglionic morphine levels
same,IC50,mu3 opiate receptor [4],> 1000 nM
same,WBC morphine concentrations versus untreated cells,[5]; P<0.001,significantly increased WBC morphine concentrations
same,Morphine levels in media after the cells were removed,"[5]; PMNs 3×10^6 cells, THP 100 μg, reticuline 50 μg, L-DOPA 100 μg, L-tyrosine 100 μg",2.112 ± 0.33
same,morphine concentrations in WBC,"[5]; one-hour treatment, control 12.33±5.64",136.04±8.71 pg/million cells
same,NO Peak Level,pedal ganglia; ligand 10^−7 M,17.6 ± 3.8 nM
same,NO Peak Time,pedal ganglia; ligand 10^−7 M,9.2 ± 1.5 min
same,delay before ganglionic NO release,pedal ganglia; reticuline 10^−7 M,three-minute delay
same,duration of ganglionic NO release,"pedal ganglia; reticuline 10^−7 M, morphine 10^−6 M",17 min
CTOP,morphine-induced NO release after CTOP pre-treatment,human saphenous veins,no NO release was detected
same,effect of CTOP on M6G-induced mu3 expression,mu3 opiate receptor [6],blocked by CTOP pre-treatment
